Measured values as given in US12679839B2, “Cyclin-dependent kinase 7 (CDK7) non-covalent inhibitors” (JANSSEN PHARMACEUTICA NV, priority 2020, dated 2026).

Assays:
[1] = molecular target: T1, CDK7/Cyclin H/MAT-1 complex (Homo sapiens, UniProt P50613); experiment: Flint assay, end-point fluorescence (5 nM CDK7/Cyclin H/MAT-1 complex); format: biochemical; conditions: for IC50: read-out: CDK7 (5 nM) pIC50 (converted)
T1 construct: Human CDK7 (amino acids 1-346); His6 (N); TEV protease cleavage site (N); made in house; host or cells: baculovirus-SF9 insect cells
Procedure: Human CDK7 (amino acids 1-346) containing an N-terminal His6-tag followed by a tobacco etch virus (TEV) protease cleavage site, human MAT1 (amino acids 1-309) and human cyclin H (amino acids 1-323) were co-expressed in the baculovirus-SF9 insect cell expression system to generate a trimeric complex. Cell pellets were collected 72 h post-infection and were resuspended by Dounce homogenization in 20 mM Hepes-NaOH (pH 8.0), 300 mM NaCl, 10% glycerol, 2 mM dithiothreitol DTT), and 20 mM Imidazole supplemented with cOmplete™ Protease Inhibitor Cocktail (Roche) and 25 U/mL Benzonase® Nuclease HC according to the manufacturer's instructions. Cells were lysed by passing through a Microfluidics M110Y Microfluidizer 3 times at 600 kPa followed by centrifugation at 38,000×g at 4° C. for 1 hour. The supernatant was loaded onto a pre-equilibrated HisTrap HP column and eluted in 20 mM Hepes-NaOH (pH 8.0), 50 mM NaCl, 10% glycerol, 2 mM DTT, and 400 mM Imidazole. The eluate was further purified by gel filtration on a Superdex S200 16/60 column and eluted with 20 mM Hepes-NaOH (pH 7.5), 50 mM NaCl, 10% Glycerol, 2 mM DTT. Fractions containing a trimeric complex of CDK7, cyclin H, and MAT1 in a 1:1:1 ratio were pooled and concentrated to 3 mg/mL in a 10 kDa MWCO concentrator, and diluted to a final concentration of 1.6 mg/mL in 11.1 mM Hepes-NaOH (pH 8.0), 27.8 mM NaCl, 1.1 mM DTT and 50% glycerol.
Compounds with potencies approaching the limit of detection of the assay (IC50≤10 nM) were further assessed in a more sensitive fluorescence end-point assay.
[formula] where νo is the rate in the absence of inhibitor, νmin is the rate at highest inhibitor concentration, and h is the Hill coefficient. Flint Assay (5 nM CDK7/Cyclin H/MAT-1 Complex)
The continuous absorbance assay was converted to an end-point fluorescence assay following the NADH fluorescence signal decrease at the excitation and emission wavelengths of 340 nm and 440 nm, respectively.
Under the same concentrations of substrates and coupling reagents used in the absorbance assay, the fluorescence assay was performed at a reduced concentration of the CDK7/Cyclin H/MAT-1 complex of 5 nM (final concentration) with a reaction time of 24 hours. The percent of inhibition was calculated by the following equation. Percent of inhibition=(Sample−NC)/(PC−NC)*100 where NC is the mean if negative control (reaction without inhibitor), and PC is the mean of positive control (reaction with complete inhibition).
Dosing curves were fitted using the following equation to obtain IC50: Y=Bottom+(Top−Bottom)/(1+10^((log IC50−X)*Hill slope)) where X=log10 of the compound concentration; top and bottom can be defined by PC and NC respectively. Imaging-Based Cellular RNA PolII Ser5 Phosphorylation Assay

[2] = molecular target: T1, CDK7/Cyclin H/MAT-1 complex; experiment: Absorbance kinetic assay (20 nM CDK7/Cyclin H/MAT-1 complex); format: biochemical; conditions: for IC50: read-out: CDK7 (20 nM) pIC50 (converted)
Outline: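 Trimeric complex (His6-TEV CDK7 1-346, MAT1 1-309, cyclin H 1-323) from Sf9 cells, at 20 nM, phosphorylating RNA Pol II-derived CDK7/9-tide; ADP coupled via PK/LDH to NADH depletion read at 340 nm every 2 min for 8 h. Steady-state slopes gave % inhibition; IC50 from 11-point Hill fit.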

T1 sequence (P50613 whole entry, the tested form may be a part): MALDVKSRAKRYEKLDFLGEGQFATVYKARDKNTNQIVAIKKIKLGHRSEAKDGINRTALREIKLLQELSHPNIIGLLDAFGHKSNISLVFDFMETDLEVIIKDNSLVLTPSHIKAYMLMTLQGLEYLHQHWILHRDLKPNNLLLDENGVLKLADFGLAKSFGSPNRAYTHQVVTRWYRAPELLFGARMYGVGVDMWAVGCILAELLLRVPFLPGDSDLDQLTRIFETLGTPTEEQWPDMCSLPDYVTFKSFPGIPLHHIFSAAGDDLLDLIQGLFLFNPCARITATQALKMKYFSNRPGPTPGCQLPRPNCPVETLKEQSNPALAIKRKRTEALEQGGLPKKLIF
T1 sequence (P51946 whole entry partner, the tested form may be a part): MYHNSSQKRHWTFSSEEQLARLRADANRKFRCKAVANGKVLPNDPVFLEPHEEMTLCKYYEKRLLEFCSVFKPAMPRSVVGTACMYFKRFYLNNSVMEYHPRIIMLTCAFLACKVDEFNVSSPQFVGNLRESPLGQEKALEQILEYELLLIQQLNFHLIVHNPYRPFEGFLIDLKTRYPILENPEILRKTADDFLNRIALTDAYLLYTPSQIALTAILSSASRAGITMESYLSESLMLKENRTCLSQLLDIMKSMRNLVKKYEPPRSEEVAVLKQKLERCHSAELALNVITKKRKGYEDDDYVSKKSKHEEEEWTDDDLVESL
T1 sequence (P51948 whole entry partner, the tested form may be a part): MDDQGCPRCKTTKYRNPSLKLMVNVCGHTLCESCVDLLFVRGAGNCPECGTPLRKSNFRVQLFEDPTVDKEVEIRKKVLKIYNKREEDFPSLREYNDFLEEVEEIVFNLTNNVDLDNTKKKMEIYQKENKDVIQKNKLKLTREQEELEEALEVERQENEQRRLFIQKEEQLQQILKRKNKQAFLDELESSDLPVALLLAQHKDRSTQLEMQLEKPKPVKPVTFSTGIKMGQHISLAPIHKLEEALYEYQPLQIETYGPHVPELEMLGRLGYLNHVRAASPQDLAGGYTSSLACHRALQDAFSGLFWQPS

SMILES | CDK7 (5 nM) pIC50 [1] | CDK7 (20 nM) pIC50 [2] | IC50 [1] [nM] | IC50 [2] [nM]
C[C@@H]1Cc2cnc(NC3CCOCC3)nc2CN1C(=O)[C@H]1CCN(C)C[C@@H]1c1ccc(Cl)c(F)c1 [Compound 122b] | 8.5 | 7.15 |  | 
C[C@@H]1Cc2cnc(Nc3cnn4c3CCCC4)nc2CN1C(=O)[C@H]1CCN(C)C[C@@H]1c1ccccc1 [Compound 77] | 7.88 | 7.53 |  | 
C[C@@H]1c2nc(NC3CCOCC3)ncc2[C@@H](C)CN1C(=O)[C@H]1CCN(C)C[C@@H]1c1ccccc1 [Compound 180a] | 8.68 | >8.01 |  | 
C[C@@H]1Cc2cnc(NCc3ccn(C)n3)nc2CN1C(=O)[C@H]1CCN(C)C[C@@H]1c1ccccc1 [Compound 1] | 8.61 | 8.01 |  | 
C[C@@H]1Cc2cnc(NC3CCN(CC(F)(F)F)CC3)nc2CN1C(=O)[C@H]1CCN(C)C[C@@H]1c1ccccc1 [Compound 45] | 7.65 | 7.62 |  | 
C[C@@H]1Cc2cnc(N[C@@H](CO)c3ccccc3)nc2CN1C(=O)[C@H]1CCN(C)C[C@@H]1c1ccccc1 [Compound 71] | 8.54 | >8.01 |  | 
C[C@@H]1Cc2cnc(N[C@@H]3CCOC4(CCC4)C3)nc2CN1C(=O)[C@H]1CCN(C)C[C@@H]1c1ccccc1 (relative stereo) [Compound 8] |  |  | 2.69 | < 9.77
Cc1ccc(CNc2ncc3c(n2)CN(C(=O)[C@H]2CCN(C)C[C@@H]2c2ccccc2)[C@H](C)C3)o1 [Compound 50] | 8.05 | 7.6 |  | 
C[C@@H]1Cc2cnc(N[C@H]3CC[C@H](C)CC3)nc2CN1C(=O)[C@H]1CCN(C)C[C@@H]1c1ccccc1 [Compound 13] | 8.85 | 8.01 |  | 
C[C@@H]1Cc2cnc(N[C@H]3CCC[C@H](O)C3)nc2CN1C(=O)[C@H]1CCN(C)C[C@@H]1c1ccccc1 [Compound 59] | 8.28 | >8.01 |  | 
C[C@H]1Cc2cnc(NC3(c4ccccc4)COC3)cc2CN1C(=O)[C@H]1CCN(C)C[C@@H]1c1ccccc1 (single isomer, unassigned) [Compound 175] | 8.13 | 7.52 |  | 
C[C@@H]1Cc2cnc(NC3CCOCC3)nc2CN1C(=O)N1CCN(C)C[C@@H]1c1ccccc1 [Compound 204a] | 8.17 | 7.81 |  | 
C[C@@H]1Cc2cnc(NC3CCN(S(=O)(=O)C4CC4)CC3)nc2CN1C(=O)N1CCN(C)C[C@@H]1c1ccccc1 [Compound 210] | 8.48 | >7.7 |  | 
Cc1cccc([C@H]2CN(C(C)C)CC[C@@H]2C(=O)N2Cc3nc(NC4CCOCC4)ncc3C[C@H]2C)c1 [Compound 166] | 7.85 | 7.74 |  | 
C[C@@H]1Cc2cnc(NC3CCS(=O)(=O)CC3)nc2CN1C(=O)[C@H]1CCN(C)C[C@@H]1c1ccccc1 [Compound 44] | 8.04 | >7.7 |  | 
CN1CC[C@H](C(=O)N2Cc3nc(NCc4ccn(C)n4)ncc3CC2(C)C)[C@@H](c2ccccc2)C1 (single isomer, unassigned) [Compound 191] | 7.41 | 6.53 |  | 
C[C@@H]1Cc2cnc(NC(C)(C)c3cnn(C)c3)nc2CN1C(=O)[C@H]1CCN(C)C[C@@H]1c1ccccc1 [Compound 90] | 7.57 | 7.43 |  | 

SMILES | CDK7 (5 nM) pIC50 [1] | CDK7 (20 nM) pIC50 [2] | IC50 [1] [nM] | IC50 [2] [nM]
C[C@@H]1Cc2cnc(NCc3cnn(C)c3)nc2CN1C(=O)[C@H]1CCN(C)C[C@@H]1c1ccccc1 [Compound 57] | 7.53 | 6.66 |  | 
Cc1cccc([C@H]2CN(C)CC[C@@H]2C(=O)N2Cc3nc(NC4CCOCC4)ncc3C[C@H]2C)c1 [Compound 93] | 8.52 | >8.01 |  | 
C[C@H]1Cc2cnc(Nc3cnn(C)c3)cc2CN1C(=O)[C@H]1CCN(C)C[C@@H]1c1ccccc1 (relative stereo) [Compound 176] |  |  | 9.12 | 22.9
CO[C@H]1CC[C@H](Nc2ncc3c(n2)CN(C(=O)[C@H]2CCN(C)C[C@@H]2c2ccccc2)[C@H](C)C3)CC1 [Compound 37] | 8.6 | 8.01 |  | 
C[C@@H]1Cc2cnc(NCc3ccsc3)nc2CN1C(=O)[C@H]1CCN(C)C[C@@H]1c1ccccc1 [Compound 48] | 7.92 | 7.59 |  | 
C[C@@H]1Cc2cnc(NC3CCS(=O)(=O)CC3)nc2CN1C(=O)N1CCN(C)C[C@@H]1c1ccccc1 [Compound 214] | 7.8 | 7.55 |  | 
CO[C@]1(C)CC[C@@H](Nc2ncc3c(n2)CN(C(=O)[C@H]2CCN(C)C[C@@H]2c2ccccc2)[C@H](C)C3)CC1 [Compound 10] | 8.11 | >8.01 |  | 
C[C@@H]1Cc2cnc(N[C@@H]3CCOC(C)(C)C3)nc2CN1C(=O)[C@H]1CCN(C)C[C@@H]1c1ccccc1 (relative stereo) [Compound 40] |  |  | 7.24 | 11
CO[C@H]1CC[C@H](Nc2cc3c(cn2)C[C@H](C)N(C(=O)[C@H]2CCN(C)C[C@@H]2c2cccc(C)c2)C3)CC1 [Compound 177c] |  |  | 22.4 | 389
C[C@@H]1Cc2cnc(NCc3ccn(C)n3)nc2CN1C(=O)[C@H]1CCN(C)C[C@@H]1c1cccc(OC(F)(F)F)c1 (relative stereo) [Compound 128] |  |  | 6.76 | 18.6
C[C@@H]1Cc2cnc(N[C@H]3CCC(=O)N(C)C3)nc2CN1C(=O)[C@H]1CCN(C)C[C@@H]1c1ccccc1 (relative stereo) [Compound 7] |  |  | 4.47 | < 9.77
Cc1ncc(CNc2ncc3c(n2)CN(C(=O)[C@H]2CCN(C)C[C@@H]2c2ccccc2)[C@H](C)C3)[nH]1 [Compound 52] | 7.9 | 7.97 |  | 
CC(C)n1cc(Nc2ncc3c(n2)CN(C(=O)[C@H]2CCN(C)C[C@@H]2c2ccccc2)[C@H](C)C3)cn1 [Compound 89] | <6.7 | 6.1 |  | 
C[C@@H]1Cc2cnc(Nc3ccnc(C(F)F)c3)nc2CN1C(=O)[C@H]1CCN(C)C[C@@H]1c1ccccc1 [Compound 75] | 8.04 | 7.46 |  | 
C[C@@H]1Cc2cnc(NC[C@@H]3CCCO3)nc2CN1C(=O)[C@H]1CCN(C)C[C@@H]1c1ccccc1 [Compound 67] |  |  | 16.6 | < 9.77
Cc1cccc([C@H]2CN(C)CC[C@@H]2C(=O)N2Cc3nc(Nc4cnn(C)c4)ncc3[C@@H]3C[C@@H]32)c1 (relative stereo) [Compound 203] |  |  | 5.37 | 17
C[C@@H]1Cc2cnc(NC[C@@H]3CCOC3)nc2CN1C(=O)[C@H]1CCN(C)C[C@@H]1c1ccccc1 [Compound 62] | 8.33 | >8.01 |  | 
